Experimental data taken from publication PMC5573420, “Correlation between human ether‐a‐go‐go‐related gene channel inhibition and action potential prolongation” (British Journal of Pharmacology, 2017).
Several values for one entry are separate records, joined by “and”; a condition that tells them apart may be missing. Identical values can stand only once. Entries after “also recorded” stand apart in the source; their conditions may differ.

Experiments:
Nav1.5 = Nav1.5 (Homo sapiens, UniProt Q14524); experiment: Sodium current inhibition in HEK cells stably expressing Nav1.5, planar patch clamp; conditions: for Shift of Nav1.5 concentration-response curve towards lower concentrations: -80 mV versus -140 mV holding potential
Description: (§1) Currents were low‐pass filtered at 10 kHz using the internal Bessel filter and sampled at 25 kHz. The extracellular solution for hERG current recording contained 140 mM NaCl, 4 mM KCl, 2 mM CaCl2, 1 mM MgCl2,5 mM D‐glucose and 10 mM HEPES (pH 7.4) (Sigma‐Aldrich). The intracellular solution for hERG current recording contained 50 mM KCl, 10 mM NaCl, 60 mM KF, 20 mM EGTA and 10 mM HEPES (pH 7.2). The extracellular solution for measuring sodium currents in HEK cells stably expressing the human clone of Nav1.5 (GenBank M77235) contained 4 mM KCl, 20 mM NaCl, 1.8 mM CaCl2, 0.75 mM MgCl2, 5 mM HEPES, 120 mM choline chloride and pH 7.4 using NaOH. The intracellular solution for sodium current recording contained 120 mM CsF, 20 mM CsCl, 5 mM EGTA, 5 mM HEPES and pH 7.4 using CsOH. All chemicals were obtained from Sigma‐Aldrich Chemie GmbH (Taufkirchen, Germany). The compound solutions were applied by means of the automated NPC‐16 Patchliner planar patch‐clamp platform.

hERG potassium channels = conditions: read-out: Ki binding studies; radioligand binding; ref Shagufta et al 2009; cited from earlier work
hiPSC-CMs = experiment: Optical measurement of action potential duration (APD90) in hiPSC-CMs using voltage-sensitive dye di-4-ANEPPS; conditions: for activity at 0.01 µM / activity at 0.1 µM / activity at 0.3 µM / activity at 1 µM / EC (50% APD prolongation): Homo sapiens; for activity at 0.01 µM / activity at 0.1 µM / activity at 0.3 µM / activity at 1 µM: 0.5 h, read-out: Changes in APD90 in hiPSC-CMs; for EC (50% APD prolongation): read-out: D150 (concentration that prolongs the AP by 50%), APD90 in hiPSC-CMs
Description: The plates were then incubated at 37°C, 5% CO2. Forty‐eight hours post‐thaw, 100% of the plating medium was replaced with CDI Maintenance Medium (CDI, CMC‐100‐120‐001), and further, 100% media changes were performed every 2 days after that.
Afterwards, the medium containing VSD was replaced by fresh serum‐free medium, and the cells were returned to the incubator. The multi‐well plate was placed in an environmentally controlled stage incubator (37°C, 5% CO2, water‐saturated air atmosphere) (Okolab Inc, Burlingame, CA, USA) of the CelIOPTIQ platform (Clyde Biosciences Ltd, Glasgow, Scotland). The di‐4‐ANEPPS fluorescence signal was recorded from a 0.2 × 0.2 mm area using a 40× (NA 0.6) objective lens. Excitation wavelength was 470 ± 10 nm using a light‐emitting diode (LED), and emitted light was collected by two photomultipliers (PMTs) at 510–560 and 590–650 nm respectively. LED, PMT, associated power supplies and amplifiers were supplied by Cairn Research Ltd (Kent, UK). […] A 20 s recording was then taken 30 min after exposure to the drug or vehicle with only one concentration applied per well. The records were subsequently analysed offline using proprietary software (CellOPTIQ). The procedure was repeated from four to five times, and parallel matched control (vehicle) measurements were taken on cardiomyocytes with equivalent concentrations of vehicle (DMSO). AP parameters were measured, including APD at 50, 75 and 90% repolarization (APD50, APD75 and APD90 respectively). Data are given as % change from control for the treated groups (vehicle, control and drug). This allowed a single comparison to be made at each concentration, and every experiment was performed with its own set of controls (vehicle). No data were used more than once.

hERG channels = hERG channels (Homo sapiens, UniProt Q12809); experiment: hERG current inhibition, automated planar patch clamp in HEK293 cells stably expressing hERG
Description: as §1
Data are presented as mean ± SEM for at least five cells from two different batches or for three independent measurements with HEK293 cells.
The concentration–inhibition relationships were analysed by plotting the normalized values of peak tail current versus peak tail steady current in the presence of the respective cumulatively applied compound concentrations (Figure 4B, C). Data points were fitted using Hill equation.

[1] = molecular target: Cav1.2 (rabbit α1-subunit with β2a and α2-δ1) (Oryctolagus cuniculus, UniProt P15381); experiment: in vitro; conditions: rabbit
Description: (§2) The transfection of tsA‐201 cells was performed using the FUGENE6 Transfection Reagent (Roche Diagonstics GmbH, Mannheim, Germany) following standard protocols. The tsA‐201 cells were used until passage number 15. […] The extracellular bath solution (in mM: BaCl2 20, MgCl2 1, HEPES 10, choline‐Cl 90) was titrated to pH 7.4 with methanesulfonic acid. […] The drugs were applied to cells under voltage clamp using a microminifold perfusion system. Ca^2+ channel block was estimated as peak IBa inhibition during a train of short (50 ms) test pulses from −80 mV at a frequency of 0.2 Hz. Patch clamp experiments to study hERG, Nav1.5 and Cav1.2 currents were performed at room temperature (22–25°C). All data were digitized and saved to disc. Current traces were filtered at 5 kHz and sampled at 10 kHz. The pClamp software package (Version 7.0 Axon Instruments, Inc.) was used for data acquisition and preliminary analysis. Microcal Origin 7.0 was used for analysis, and sigmoidal curves were fitted using the Hill equation.
(§3) Use‐dependent channel inhibition was studied during trains of 1 Hz and 50 ms test pulses (from −80 to +10 mV). After the application of 20 test pulses in control (absence of drug), the cells were incubated for 3 min with drug at rest. Peak current inhibition during the first pulse (1st, Figure 6C) in the presence of the drug reflects ‘resting state’ block. Additional current inhibition during a subsequently applied pulse train illustrates use‐dependent block. Peak current inhibition in control and drug are compared in Figure 6D.

[2] = molecular target: rabbit CaV1.2 α1-subunit with β2a and α2-δ1 (Oryctolagus cuniculus, UniProt P15381); experiment: Barium current (IBa) inhibition through Cav1.2 in transfected tsA-201 cells, manual patch clamp; conditions: for Resting state and use-dependent block of Cav1.2: 1 Hz trains of 50 ms pulses after 3 min incubation at rest; for Cav1.2 IC50 (peak IBa inhibition): rabbit, pH 7.4; for Peak current decay after 20 pulses at 1 Hz (use-dependent block): 50 ms pulses from -80 to +10 mV, control 12 ± 2%
Description: as §2, §3

[3] = Nav1.5 IC50 (peak INa inhibition), holding potential -80 mV
[4] = Nav1.5 IC50 (peak INa inhibition), holding potential -140 mV, 0.2 Hz
[5] = pH 7.4, Cav1.2 IC50 (peak IBa inhibition)

Chain of Cav1.2 (rabbit α1-subunit with β2a and α2-δ1) (P15381 whole entry, other chains not shown, the tested form may be a part): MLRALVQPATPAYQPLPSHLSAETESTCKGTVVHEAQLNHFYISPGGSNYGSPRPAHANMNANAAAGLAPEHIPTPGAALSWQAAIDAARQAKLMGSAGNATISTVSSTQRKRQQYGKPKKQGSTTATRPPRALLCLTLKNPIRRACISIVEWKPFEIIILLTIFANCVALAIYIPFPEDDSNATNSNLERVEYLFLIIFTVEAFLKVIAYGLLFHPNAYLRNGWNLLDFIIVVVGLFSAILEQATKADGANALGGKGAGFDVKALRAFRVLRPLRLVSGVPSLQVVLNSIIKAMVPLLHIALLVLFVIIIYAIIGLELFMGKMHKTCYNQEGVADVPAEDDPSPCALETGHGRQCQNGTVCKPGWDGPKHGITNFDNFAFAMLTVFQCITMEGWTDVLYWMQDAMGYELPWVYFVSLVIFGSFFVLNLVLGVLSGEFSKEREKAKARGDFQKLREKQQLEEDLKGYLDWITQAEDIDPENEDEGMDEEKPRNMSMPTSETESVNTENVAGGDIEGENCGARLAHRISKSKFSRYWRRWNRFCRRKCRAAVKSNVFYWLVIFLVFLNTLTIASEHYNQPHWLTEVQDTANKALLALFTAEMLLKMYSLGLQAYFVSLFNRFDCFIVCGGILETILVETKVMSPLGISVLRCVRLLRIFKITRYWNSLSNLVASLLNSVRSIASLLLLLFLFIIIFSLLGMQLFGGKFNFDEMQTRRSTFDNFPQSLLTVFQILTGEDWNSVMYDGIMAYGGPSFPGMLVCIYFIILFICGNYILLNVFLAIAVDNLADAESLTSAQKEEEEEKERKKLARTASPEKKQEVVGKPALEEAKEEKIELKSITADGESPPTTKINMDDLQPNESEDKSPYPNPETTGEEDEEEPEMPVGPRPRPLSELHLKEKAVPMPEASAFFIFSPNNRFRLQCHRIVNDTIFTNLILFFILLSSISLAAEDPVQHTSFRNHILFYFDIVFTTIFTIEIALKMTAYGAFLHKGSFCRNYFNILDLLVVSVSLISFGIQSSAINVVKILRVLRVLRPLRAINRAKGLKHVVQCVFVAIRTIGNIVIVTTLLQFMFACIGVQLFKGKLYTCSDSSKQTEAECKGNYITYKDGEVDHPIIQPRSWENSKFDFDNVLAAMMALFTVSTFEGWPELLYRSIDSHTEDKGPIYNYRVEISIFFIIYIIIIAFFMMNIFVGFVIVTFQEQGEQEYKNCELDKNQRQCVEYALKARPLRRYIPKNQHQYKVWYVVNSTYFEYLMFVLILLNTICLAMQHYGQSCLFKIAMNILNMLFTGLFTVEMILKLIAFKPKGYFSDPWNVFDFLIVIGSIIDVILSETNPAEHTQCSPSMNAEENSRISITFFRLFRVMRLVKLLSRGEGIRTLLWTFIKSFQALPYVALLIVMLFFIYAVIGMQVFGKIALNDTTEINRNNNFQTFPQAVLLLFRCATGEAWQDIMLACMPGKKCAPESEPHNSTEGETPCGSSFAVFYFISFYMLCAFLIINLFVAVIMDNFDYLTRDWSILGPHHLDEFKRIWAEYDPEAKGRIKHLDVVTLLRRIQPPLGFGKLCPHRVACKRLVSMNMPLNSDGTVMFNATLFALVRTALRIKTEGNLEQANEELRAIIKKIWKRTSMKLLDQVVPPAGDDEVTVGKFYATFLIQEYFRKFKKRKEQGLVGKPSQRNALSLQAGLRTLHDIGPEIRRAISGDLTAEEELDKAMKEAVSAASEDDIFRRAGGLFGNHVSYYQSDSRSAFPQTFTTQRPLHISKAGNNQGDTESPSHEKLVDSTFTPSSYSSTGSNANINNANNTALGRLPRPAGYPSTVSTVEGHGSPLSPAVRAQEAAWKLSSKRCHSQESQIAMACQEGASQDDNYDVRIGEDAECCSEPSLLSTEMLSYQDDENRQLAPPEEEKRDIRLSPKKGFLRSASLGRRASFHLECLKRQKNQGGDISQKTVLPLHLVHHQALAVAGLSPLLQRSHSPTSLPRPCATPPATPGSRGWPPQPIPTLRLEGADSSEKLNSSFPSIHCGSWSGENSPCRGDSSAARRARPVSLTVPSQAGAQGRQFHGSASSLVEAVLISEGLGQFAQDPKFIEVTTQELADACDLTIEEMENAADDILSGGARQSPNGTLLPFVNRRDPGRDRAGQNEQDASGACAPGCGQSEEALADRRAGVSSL
Chain of Cav1.2 (rabbit α1-subunit with β2a and α2-δ1) (P13806 27-960 partner limits assumed, other chains not shown): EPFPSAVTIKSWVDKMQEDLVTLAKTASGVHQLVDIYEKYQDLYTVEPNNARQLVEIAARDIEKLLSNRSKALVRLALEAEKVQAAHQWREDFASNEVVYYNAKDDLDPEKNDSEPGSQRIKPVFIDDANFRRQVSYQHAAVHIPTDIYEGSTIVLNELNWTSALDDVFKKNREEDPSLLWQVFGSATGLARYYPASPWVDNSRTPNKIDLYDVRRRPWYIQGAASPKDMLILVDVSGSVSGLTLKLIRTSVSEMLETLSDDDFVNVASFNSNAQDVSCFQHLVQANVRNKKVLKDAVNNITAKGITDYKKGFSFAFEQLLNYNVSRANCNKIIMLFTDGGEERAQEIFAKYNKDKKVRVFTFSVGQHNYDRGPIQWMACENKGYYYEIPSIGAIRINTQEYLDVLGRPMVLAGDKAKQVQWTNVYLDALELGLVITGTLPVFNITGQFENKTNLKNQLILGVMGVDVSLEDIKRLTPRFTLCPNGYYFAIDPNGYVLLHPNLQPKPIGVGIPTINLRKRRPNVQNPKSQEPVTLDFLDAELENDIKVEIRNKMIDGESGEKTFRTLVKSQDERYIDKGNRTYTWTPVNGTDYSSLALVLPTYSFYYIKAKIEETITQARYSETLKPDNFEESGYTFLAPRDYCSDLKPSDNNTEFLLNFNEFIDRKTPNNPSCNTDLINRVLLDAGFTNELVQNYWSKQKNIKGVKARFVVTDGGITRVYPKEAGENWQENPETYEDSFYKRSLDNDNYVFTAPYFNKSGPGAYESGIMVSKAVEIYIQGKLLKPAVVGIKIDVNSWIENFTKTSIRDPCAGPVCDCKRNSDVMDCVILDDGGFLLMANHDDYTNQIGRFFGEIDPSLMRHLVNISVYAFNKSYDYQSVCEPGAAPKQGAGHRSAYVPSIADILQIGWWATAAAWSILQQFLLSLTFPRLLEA
Chain of Cav1.2 (rabbit α1-subunit with β2a and α2-δ1) (P13806 961-1106 partner limits assumed, other chains not shown): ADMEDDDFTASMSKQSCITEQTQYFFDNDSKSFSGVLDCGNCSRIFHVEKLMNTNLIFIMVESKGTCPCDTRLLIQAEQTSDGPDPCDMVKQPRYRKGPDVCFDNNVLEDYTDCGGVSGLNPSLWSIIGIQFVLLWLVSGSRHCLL
Chain of rabbit CaV1.2 α1-subunit with β2a and α2-δ1 (P15381 whole entry, other chains not shown): as the sequence (P15381 whole entry, other chains not shown, the tested form may be a part) above
Chain of rabbit CaV1.2 α1-subunit with β2a and α2-δ1 (P13806 27-960 partner limits assumed, other chains not shown): as the sequence (P13806 27-960 partner limits assumed, other chains not shown) above
Chain of rabbit CaV1.2 α1-subunit with β2a and α2-δ1 (P13806 961-1106 partner limits assumed, other chains not shown): as the sequence (P13806 961-1106 partner limits assumed, other chains not shown) above
Chain of hERG channels (Q12809 whole entry): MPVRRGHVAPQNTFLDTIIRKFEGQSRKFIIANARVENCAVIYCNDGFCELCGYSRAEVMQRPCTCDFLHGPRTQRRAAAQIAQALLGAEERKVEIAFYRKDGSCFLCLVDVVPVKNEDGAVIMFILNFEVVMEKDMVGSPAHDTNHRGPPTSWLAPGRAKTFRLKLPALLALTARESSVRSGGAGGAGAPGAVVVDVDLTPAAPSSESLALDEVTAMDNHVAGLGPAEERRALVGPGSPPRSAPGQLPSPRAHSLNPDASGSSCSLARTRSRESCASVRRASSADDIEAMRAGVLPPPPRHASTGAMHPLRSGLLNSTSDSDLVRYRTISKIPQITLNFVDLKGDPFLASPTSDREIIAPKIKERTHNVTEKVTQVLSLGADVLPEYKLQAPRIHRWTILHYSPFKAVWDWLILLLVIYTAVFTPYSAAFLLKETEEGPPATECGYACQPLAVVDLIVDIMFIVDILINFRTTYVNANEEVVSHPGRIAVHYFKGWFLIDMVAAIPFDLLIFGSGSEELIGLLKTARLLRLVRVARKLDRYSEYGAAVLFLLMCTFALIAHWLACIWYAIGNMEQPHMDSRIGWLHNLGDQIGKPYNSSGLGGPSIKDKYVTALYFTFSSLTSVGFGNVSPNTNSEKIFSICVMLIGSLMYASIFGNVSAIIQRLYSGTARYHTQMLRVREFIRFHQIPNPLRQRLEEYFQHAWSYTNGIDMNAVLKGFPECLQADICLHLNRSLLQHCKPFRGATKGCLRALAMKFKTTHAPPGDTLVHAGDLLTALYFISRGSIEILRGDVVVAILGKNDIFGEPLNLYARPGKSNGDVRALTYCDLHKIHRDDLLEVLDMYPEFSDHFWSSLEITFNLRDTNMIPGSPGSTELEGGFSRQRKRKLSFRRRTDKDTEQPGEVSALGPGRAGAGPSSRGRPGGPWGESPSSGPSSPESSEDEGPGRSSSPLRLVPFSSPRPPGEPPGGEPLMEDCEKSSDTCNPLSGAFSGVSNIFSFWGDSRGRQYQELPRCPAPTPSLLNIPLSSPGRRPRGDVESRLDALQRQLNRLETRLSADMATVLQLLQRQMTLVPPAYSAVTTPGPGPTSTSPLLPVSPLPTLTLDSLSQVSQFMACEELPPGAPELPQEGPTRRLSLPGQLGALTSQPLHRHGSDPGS

Compound	Shift of Nav1.5 concentration-response curve towards lower concentrations (Nav1.5)	IC50 (Nav1.5; [3])	IC50 (Nav1.5; [4])	Ki (hERG potassium channels)	activity at 0.01 µM (hiPSC-CMs)	activity at 0.1 µM (hiPSC-CMs)	activity at 0.3 µM (hiPSC-CMs)	activity at 1 µM (hiPSC-CMs)	EC (50% APD prolongation) (hiPSC-CMs)	Effect on APD90 / AP prolongation (in words) (hiPSC-CMs; hiPSC-CMs)	IC50 (hERG channels)	IC50 [1, 5]	Resting state and use-dependent block of Cav1.2 [2]	Cav1.2 IC50 (peak IBa inhibition) [2]	also measured
CN(CCOc1ccc(Cl)c(Cl)c1)CCc1ccccc1 [Dofe44]	fivefold	4.7 ± 2 µM	23.3 ± 1.9 µM	0.0024 ± 0.0022 µM	90%	83%	87%	92%	> 0.6 µM	did not affect APD90 even at 1 μM; also recorded: did not induce prolongation of AP	0.0381 ± 0.0126 µM	> 100 µM	No use‐dependent block	> 200 µM	–
CN(CCOc1ccc([N+](=O)[O-])cc1)CCc1ccccc1 [Dofe45]	–	–	69.7 ± 1 µM	–	71%	89%	95%	215%	0.538 µM	only slightly prolonged the AP; also recorded: slightly prolonged the AP at high concentrations	–	0.19 ± 0.003 µM	pronounced resting state block and additional use‐dependent block	0.192 ± 0.028 µM	IC50 (Nav1.5; Nav1.5 IC50 used for AP simulation, value entered in in silico hiPSC-CM AP model (Figure 8C)): 8.9 µM and 10 µM; IC50 (Nav1.5; human, pH 7.4, Nav1.5 IC50 (peak INa inhibition)): 6.4 ± 1 µM; Incidence of EADs (hiPSC-CMs; hiPSC-CMs): without (if any) incidence of EADs; IC50 ([1]; pH 7.4, Cav1.2 IC50 used for AP simulation): 0.2 µM; Peak current decay after 20 pulses at 1 Hz (use-dependent block) ([2]; 100 nM): 42 ± 6%
COc1ccc(OCCN(C)CCc2ccccc2)cc1 [Dofe42]	5.6 fold	13.8 ± 1.9 µM	77.9 ± 9.7 µM	0.0033 ± 0.002 µM	113%	92%	95%	98%	> 0.6 µM	did not affect APD90 even at 1 μM; also recorded: did not induce prolongation of AP	0.213 ± 0.0835 µM	–	pronounced resting state block and additional use‐dependent block	–	IC50 ([1]; pH 7.4, Cav1.2 IC50 (peak IBa inhibition), 0.2 Hz, 50 ms pulses from -80 to +10 mV): 38 ± 9.3 µM; Peak current decay after 20 pulses at 1 Hz (use-dependent block) ([2]; 100 μM): 38 ± 2%
